Test systems include SN12C renal; HCT-116 colon; HCT-15 colon; 786-0 renal; HCC-2998 colon; SK-MEL-28 melanoma; U251 CNS; NCI-H460 lung; SF-268 CNS; COLO 205 colon.
Common to all, as to experiment: inhibition of tumour cell growth, NCI panel, 48 h

“And” between values parts separate entries of the source, which are not always exact repeats. Equal entries are not always repeated.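 Values below derive from 48-hour exposures of cells grown in 96-well plates, with endpoints linearly interpolated between the two concentrations bracketing the appropriate inhibition level. GI50: concentration for 50% inhibition of growth. TGI denotes the concentration required for complete inhibition of growth.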 A value given as a limit tells only on which side of the number the result lay.

For eight compounds, GI50 and TGI results are on record in PubChem BioAssay (NCI).

Regarding `CC1(C)CC[C@]23CC[C@]4(C)[C@H](CC[C@@H]5[C@@]6(C)CCCNC(C)(C)[C@@H]6CC[C@]54C)[C@H]2[C@H]1OC3`, the GI50 was 1.68 µM in the assay on SN12C renal; 1.52 µM with HCT-116 colon; 1.31 µM with HCT-15 colon; 1.66 µM with 786-0 renal; 1.54 µM with HCC-2998 colon; 1.66 µM with SK-MEL-28 melanoma. The GI50 in the assay with U251 CNS is 1.74 µM; with NCI-H460 lung it was 0.646 µM; in the assay with SF-268 CNS it was 2.04 µM; in the assay with COLO 205 colon, 1.28 µM. The TGI turned out to be 3.2 µM with SN12C renal; 2.88 µM with HCT-116 colon; 2.68 µM in the assay on HCT-15 colon; 3.21 µM in the assay on 786-0 renal; 2.97 µM with HCC-2998 colon; 3.18 µM with SK-MEL-28 melanoma. In addition, the TGI was 3.23 µM with U251 CNS, 2.2 µM in the assay with NCI-H460 lung, 5.31 µM in the assay with SF-268 CNS and 2.68 µM in the assay with COLO 205 colon.

For `Cc1c(O)cccc1C(=O)N[C@@H](CSc1ccccc1)[C@H](O)CN1C[C@H]2CCCC[C@H]2C[C@H]1C(=O)NC(C)(C)C`, the GI50 with SN12C renal is 4.07 µM and 6.63 µM; in the assay on HCT-116 colon it was 4.27 µM and 5.97 µM; in the assay with HCT-15 colon, 1.77 µM and 3.11 µM; in the assay on 786-0 renal, 3.8 µM and 5.87 µM; with HCC-2998 colon, 3.6 µM and 4.97 µM; in the assay with SK-MEL-28 melanoma, 5.68 µM and 7.33 µM. For the same compound, the GI50 with U251 CNS was 3.79 µM and 4.25 µM; in the assay on NCI-H460 lung it was 3.48 µM and 4.79 µM; with SF-268 CNS it was 4.5 µM and 5.97 µM; in the assay on COLO 205 colon, 2.24 µM and 4.05 µM. Further, the TGI with SN12C renal is 12.6 µM and 18.3 µM; in the assay on HCT-116 colon, 16 µM and 17.9 µM; in the assay with HCT-15 colon it was 13.2 µM and 12.9 µM; in the assay with 786-0 renal, 16.4 µM and 16 µM; in the assay with HCC-2998 colon it was 10.5 µM and 13.6 µM; in the assay with SK-MEL-28 melanoma, 19.3 µM and 22.2 µM. Moreover, the TGI is 14.5 µM and 14.7 µM in the assay with U251 CNS; 13.8 µM and 11.4 µM in the assay with NCI-H460 lung; 15.8 µM and 26 µM in the assay with SF-268 CNS; 6.03 µM with COLO 205 colon.

As for `c1cc[n+](Cc2c3ccccc3cc3c2ccc2ccccc23)cc1`, the GI50 with SN12C renal is 0.506 µM; in the assay with HCT-116 colon, 4.77 µM; with HCT-15 colon, more than 100 µM; in the assay on 786-0 renal it was 4.83 µM; in the assay on HCC-2998 colon, 3.38 µM; in the assay on SK-MEL-28 melanoma, 2.11 µM. Also, the GI50 with U251 CNS is 1.1 µM; in the assay on NCI-H460 lung it was 3.26 µM; in the assay with SF-268 CNS, 1.13 µM; in the assay with COLO 205 colon, 1.88 µM. Also, the TGI in the assay on SN12C renal is 4.73 µM; in the assay with HCT-116 colon it was 17.1 µM; in the assay with HCT-15 colon, more than 100 µM; in the assay with 786-0 renal, 26.1 µM; in the assay on HCC-2998 colon it was 19.4 µM; in the assay on SK-MEL-28 melanoma it was 5.5 µM. Moreover, the TGI is 6.37 µM with U251 CNS, 11.9 µM with NCI-H460 lung, 5.48 µM in the assay on SF-268 CNS and 5.24 µM in the assay with COLO 205 colon.

Regarding `CC(C)C[C@H](NC(=O)[C@@H](Cc1ccccc1)n1ccc(Nc2ccccc2)cc1=O)B(O)O`, the GI50 with SN12C renal is 0.73 µM; in the assay with HCT-116 colon, 0.257 µM; in the assay with HCT-15 colon it was 1.11 µM; with 786-0 renal, 0.582 µM; with HCC-2998 colon, 0.353 µM; in the assay with SK-MEL-28 melanoma, 0.349 µM. In addition, the GI50 is 0.417 µM in the assay with U251 CNS, 0.836 µM in the assay on NCI-H460 lung, 0.385 µM in the assay on SF-268 CNS and 0.545 µM in the assay with COLO 205 colon. Also, the TGI in the assay on SN12C renal was found to be 6.94 µM; in the assay on HCT-116 colon it was 1.23 µM; in the assay on HCT-15 colon it was 17 µM; in the assay on 786-0 renal, 59 µM; in the assay on HCC-2998 colon, 1.36 µM; with SK-MEL-28 melanoma it was 2.98 µM. For the same compound, the TGI in the assay with U251 CNS was 12.2 µM; in the assay on NCI-H460 lung, 8.29 µM; in the assay on SF-268 CNS, 2.31 µM; in the assay with COLO 205 colon, 13.1 µM.

On to `CCc1ccc(Oc2c(-c3ccc(OCCc4cccc(C(F)(F)F)c4)cc3O)n[nH]c2C(F)(F)F)cc1`, for which the GI50 with SN12C renal was 2.4 µM; in the assay with HCT-116 colon, 1.53 µM; in the assay on HCT-15 colon, 1.96 µM; in the assay on 786-0 renal, 6.38 µM; with HCC-2998 colon, 8.54 µM; with SK-MEL-28 melanoma, 5.39 µM. The GI50 with U251 CNS is 1.81 µM; in the assay on NCI-H460 lung it was 1.67 µM; with SF-268 CNS, 5.02 µM; in the assay with COLO 205 colon, 8.72 µM. The TGI came to 8.35 µM with SN12C renal; 5.47 µM in the assay on HCT-116 colon; 6.89 µM with HCT-15 colon; 12.9 µM in the assay with 786-0 renal; 16 µM in the assay on HCC-2998 colon; 11.4 µM in the assay on SK-MEL-28 melanoma. Moreover, the TGI in the assay with U251 CNS was found to be 6.44 µM; in the assay with NCI-H460 lung, 5.74 µM; in the assay on SF-268 CNS it was 11 µM; in the assay with COLO 205 colon, 15.8 µM.

`NNC(=O)/C(NC(=O)c1ccccc1)=C(\N)c1cccc([N+](=O)[O-])c1`: the TGI in the assay on SN12C renal, in the assay on HCT-116 colon, in the assay with HCT-15 colon, in the assay on 786-0 renal, in the assay on HCC-2998 colon and with SK-MEL-28 melanoma was more than 100 µM in each case. Moreover, the TGI with U251 CNS, with NCI-H460 lung, with SF-268 CNS and with COLO 205 colon was more than 100 µM throughout.

As to `Nc1nc2ccc(CNc3ccc(C(=O)NC(CC(=O)O)C(=O)O)cc3)cc2c(=O)[nH]1` (centres undefined), the GI50 with SN12C renal was 3.86 µM; in the assay with HCT-116 colon, 0.478 µM; with HCT-15 colon it was 0.757 µM; with 786-0 renal it was 2.18 µM; in the assay on HCC-2998 colon, 7.39 µM; in the assay on SK-MEL-28 melanoma it was more than 96 µM. The GI50 is 7.49 µM in the assay on U251 CNS, 0.593 µM in the assay on NCI-H460 lung, 5 µM with SF-268 CNS and 10.7 µM with COLO 205 colon. Besides, the TGI in the assay with SN12C renal, in the assay on HCT-116 colon, in the assay on HCT-15 colon, in the assay with 786-0 renal, with HCC-2998 colon and in the assay on SK-MEL-28 melanoma was more than 100 µM throughout. The TGI in the assay with U251 CNS, in the assay with NCI-H460 lung, with SF-268 CNS and with COLO 205 colon was more than 100 µM throughout.

As to `CCOC(=O)CCc1c(C)c2c(OC)cc(OC)cc2oc1=O`, the TGI in the assay on SN12C renal, with HCT-116 colon, in the assay with 786-0 renal, in the assay with HCC-2998 colon, with SK-MEL-28 melanoma and in the assay with U251 CNS was more than 100 µM in each case. In addition, the TGI in the assay with NCI-H460 lung, in the assay with SF-268 CNS and in the assay on COLO 205 colon was more than 100 µM each time.
